Measured values reported in US9795681B2, “Tamper resistant dosage form comprising an adsorbent and an adverse agent” (Purdue Pharma L.P., priority 2004, dated 2017).
Where a name gives a salt, the structure may show the parent alone.

Experiments:
[1] = administered orally; cited from earlier work
[2] = Dynamic desorption of the Charcoal/Naltrexone by washing with 0.1N HCl; assay type: physicochemical; conditions: 1 L aliquots of 0.1N HCl, 25° C.
Protocol: IN HCI. The concentration of naltrexone hydrochloride in the wash filtrates was measured using HPLC as described above.

[3] = Adsorption of naltrexone hydrochloride onto activated charcoal from 0.1N HCl, HPLC of liquid phase; assay type: physicochemical; conditions: 37° C.; for Naltrexone adsorbed from solution / Naltrexone adsorbed onto the activated charcoal / Naltrexone content in fluid / Naltrexone content in fluid, HPLC area %: 0.1N aqueous HCl
Protocol: Example 1 describes a non-limiting method for making an adsorbent/adverse agent. The adsorbent used was DARCO activated charcoal obtained from EM Science, an affiliate of Merck KGaA of Darmstadt, Germany. The DARCO activated charcoal used was 20 to 40 mesh black granular charcoal which passed the USP absorptive power test (see The United States Pharmacopeia, 26:404 (2003)) for activated charcoal.
Adsorption of naltrexone: The activated charcoal (5.02 g) was added to a solution of naltrexone hydrochloride (504.26 mg) (obtained from Mallinkrodt, St. Louis, Mo.) in 0.1N HCI (900 mL). The resultant mixture was stirred at 100 rpm for 120 h at 37° C., and the adsorption (or uptake) of naltrexone hydrochloride into the activated charcoal was monitored by measuring the decrease in concentration of the naltrexone hydrochloride in the liquid phase using high performance liquid chromatography (HPLC). The data was used to calculate the amount of naltrexone adsorbed onto the activated charcoal, e.g., after 2 h, as follows: […]

## C[C@H]1[C@H]2Cc3ccc(O)cc3[C@]1(C)CCN2CC1CC1 [cyclazocine]
[1]
  duration of action: ~24 h

## O=C1CC[C@@]2(O)[C@H]3Cc4ccc(O)c5c4[C@@]2(CCN3CC2CC2)[C@H]1O5 [naltrexone]
[1]
  duration of action: ~24 h

## O=C1CC[C@@]2(O)[C@H]3Cc4ccc(O)c5c4[C@@]2(CCN3CC2CC2)[C@H]1O5 [naltrexone hydrochloride]
[2]
  wash steps during which the majority of the desorption of naltrexone hydrochloride occurred: ≤ 18 wash steps
[3]; time 0 min
  Naltrexone adsorbed from solution: 0.00%
  Naltrexone adsorbed onto the activated charcoal: 0.00 mg
  Naltrexone content in fluid: 504.26 mg
  Naltrexone content in fluid, HPLC area %: 4.836 HPLC area %
[3]; time 10 min
  Naltrexone adsorbed from solution: 23.34%
  Naltrexone adsorbed onto the activated charcoal: 117.69 mg
  Naltrexone content in fluid: 386.57 mg
  Naltrexone content in fluid, HPLC area %: 3.707 HPLC area %
[3]; time 20 min
  Naltrexone adsorbed from solution: 32.01%
  Naltrexone adsorbed onto the activated charcoal: 161.39 mg
  Naltrexone content in fluid: 342.87 mg
  Naltrexone content in fluid, HPLC area %: 3.288 HPLC area %
[3]; time 30 min
  Naltrexone adsorbed from solution: 37.62%
  Naltrexone adsorbed onto the activated charcoal: 189.69 mg
  Naltrexone content in fluid: 314.57 mg
  Naltrexone content in fluid, HPLC area %: 3.017 HPLC area %
[3]; time 40 min
  Naltrexone adsorbed from solution: 41.36%
  Naltrexone adsorbed onto the activated charcoal: 208.55 mg
  Naltrexone content in fluid: 295.71 mg
  Naltrexone content in fluid, HPLC area %: 2.836 HPLC area %
[3]; time 50 min
  Naltrexone adsorbed from solution: 45.37%
  Naltrexone adsorbed onto the activated charcoal: 228.81 mg
  Naltrexone content in fluid: 275.45 mg
  Naltrexone content in fluid, HPLC area %: 2.642 HPLC area %
[3]; time 60 min
  Naltrexone adsorbed from solution: 47.75%
  Naltrexone adsorbed onto the activated charcoal: 240.76 mg
  Naltrexone content in fluid: 263.50 mg
  Naltrexone content in fluid, HPLC area %: 2.527 HPLC area %
[3]; time 70 min
  Naltrexone adsorbed from solution: 49.10%
  Naltrexone adsorbed onto the activated charcoal: 247.60 mg
  Naltrexone content in fluid: 256.66 mg
  Naltrexone content in fluid, HPLC area %: 2.461 HPLC area %
[3]; time 80 min
  Naltrexone adsorbed from solution: 50.76%
  Naltrexone adsorbed onto the activated charcoal: 255.97 mg
  Naltrexone content in fluid: 248.29 mg
  Naltrexone content in fluid, HPLC area %: 2.381 HPLC area %
[3]; time 90 min
  Naltrexone adsorbed from solution: 52.98%
  Naltrexone adsorbed onto the activated charcoal: 267.16 mg
  Naltrexone content in fluid: 237.10 mg
  Naltrexone content in fluid, HPLC area %: 2.274 HPLC area %
[3]; time 100 min
  Naltrexone adsorbed from solution: 54.38%
  Naltrexone adsorbed onto the activated charcoal: 274.20 mg
  Naltrexone content in fluid: 230.06 mg
  Naltrexone content in fluid, HPLC area %: 2.206 HPLC area %
[3]; time 120 min
  Naltrexone adsorbed from solution: 55.36%
  Naltrexone adsorbed onto the activated charcoal: 279.16 mg
  Naltrexone content in fluid: 225.10 mg
  Naltrexone content in fluid, HPLC area %: 2.159 HPLC area %
[3]; onto activated charcoal, 0.1N HCl
  time within which substantially all of the naltrexone adsorption was completed: ≤ 1.5 h
